# Source: article PMC5218472 (PLoS Biology, 2017)
# Residues, ends and D or L forms follow the SMILES beside them. *: point of attachment. X1 = CC(=O)N[C@@H]1[C@@H](O)[C@H](O[C@@H]2O[C@H](CO)[C@@H](O[C@@H]3O[C@H](CO[C@H]4O[C@H](CO)[C@@H](O)[C@H](O)[C@@H]4O[C@@H]4O[C@H](CO)[C@@H](O[C@@H]5O[C@H](CO)[C@H](O)[C@H](O)[C@H]5O)[C@H](O)[C@H]4NC(C)=O)[C@@H](O)[C@H](O[C@H]4O[C@H](CO)[C@@H](O)[C@H](O)[C@@H]4O[C@@H]4O[C@H](CO)[C@@H](O[C@@H]5O[C@H](CO)[C@H](O)[C@H](O)[C@H]5O)[C@H](O)[C@H]4NC(C)=O)[C@@H]3O)[C@H](O)[C@H]2NC(C)=O)[C@@H](CO)O[C@H]1N*; αGalNAc = CC(=O)N[C@@H]1[C@@H](O)[C@@H](O)[C@@H](CO)O[C@@H]1*
# Tests used:
# [1] = system: recombinant catalytic domain of ADAM17; experiment: recombinant catalytic domain of ADAM17 in 25 mM Hepes (pH 9.0); settings: 37°C, up to 16 h
# [2] = molecular target: T1, recombinant catalytic domain of ADAM17 (Homo sapiens, UniProt P78536); experiment: In vitro cleavage assay of IL-6R (glyco)peptides with recombinant ADAM17; settings: 50 μM peptide, 25 mM Hepes pH 9.0, 16 h, 37°C, RP chromatography
# T1 construct: catalytic domain (aa Pro-18 to Val-477) of ADAM17; purchased Enzo Life Sciences GmbH (Lörrach, Germany)
# T1 sequence (P78536 18-477): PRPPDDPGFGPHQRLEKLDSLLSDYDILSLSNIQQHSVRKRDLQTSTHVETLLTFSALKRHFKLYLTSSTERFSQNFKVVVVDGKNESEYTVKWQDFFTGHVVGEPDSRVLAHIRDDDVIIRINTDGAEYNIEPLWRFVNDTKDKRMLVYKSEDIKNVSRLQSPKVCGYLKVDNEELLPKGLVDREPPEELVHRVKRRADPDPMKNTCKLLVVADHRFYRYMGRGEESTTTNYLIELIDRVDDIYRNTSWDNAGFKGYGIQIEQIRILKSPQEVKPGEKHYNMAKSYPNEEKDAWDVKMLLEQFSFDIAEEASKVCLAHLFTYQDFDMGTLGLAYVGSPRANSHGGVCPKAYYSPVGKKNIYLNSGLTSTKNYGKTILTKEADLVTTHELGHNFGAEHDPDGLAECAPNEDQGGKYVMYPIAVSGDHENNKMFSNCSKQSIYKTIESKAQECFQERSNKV
# Protocol: (§1) Fig 7 The N- and O-glycosylated sequon adjacent to the cleavage site is of minor importance for IL-6R cleavage. (A) Amino-acid sequence of the two unglycosylated peptides 1(QD) and 2(QA). Peptides were incubated either with or without recombinant ADAM17 for 16 h at 37°C, and the amount of cleaved peptide was analyzed by reversed-phase (RP) chromatography. (B) Amino-acid sequence of the two glycopeptides 3(QD) and 4(QA), which have a GlcNAc attached to the amino-acid residue corresponding to Asn-350 of the IL-6R. Cleavage was determined as described in panel (A). (C) Amino-acid sequence of the two glycopeptides 5(QD) and 6(QA), which have a biantennary N-glycan attached to the amino-acid residue corresponding to Asn-350 of the IL-6R. Cleavage was determined as described in panel (A). (D) Amino-acid sequence of the two glycopeptides 7(QD) and 8(QA), which have a GalNAc attached to the amino-acid residue corresponding toThr-352 of the IL-6R. Cleavage was determined as described in panel (A). (E) Amino-acid sequence of the two glycopeptides 9(QD) and 10(QA), which have a biantennary N-glycan attached to the amino-acid residue corresponding to Asn-350 and a GalNAc attached to the amino-acid residue corresponding toThr-352 of the IL-6R. Cleavage was determined as described in panel (A). All data shown are the mean ± SD from three independent experiments (*p < 0.05, **p < 0.01, ***p < 0.001, compared to the untreated peptide; ^§p < 0.05, compared to the cleaved nonglycosylated peptide).
# (§2) Two 1.5 ml reaction tubes were filled with 50 μl peptide (50 μM) solved in 25 mM Hepes (pH 9.0), and 0.5 μl of the recombinant catalytic domain of ADAM17 was added to one of the reaction tubes, whereas the other sample remained untreated. All samples were incubated for 16 h at 37°C. Afterwards, 1,150 μl 0.1% TFA was added to each sample, and the peptides were separated on a reverse phase chromatography column (Multo High Bio-200-C18) from Chromatographie Service (Langerwehe, Germany) using a linear gradient elution with a binary solvent system and a flow rate of 1 ml/min. Solvent A consisted of 0.1% TFA, and solvent B consisted of 100% ACN. After peak integration, peak areas for cleaved and noncleaved peptides were determined.
# [3] = as above; settings: human, isolated enzyme; 50 μM peptide, 25 mM Hepes pH 9.0, recombinant catalytic domain of ADAM17, 16 h, 37°C, reverse phase C18 chromatography, peak areas; mean of 3 independent experiments; read-out: intact peptide after incubation with ADAM17 (untreated peptide = 100), mean
# Protocol: as §1, §2
# [4] = system: Ba/F3-gp130-IL-6R_DG cells; experiment: Proliferation in response to IL-6 or Hyper-IL-6 (S4H Fig); assay type: cell-based; settings: highest value = 100, mean of n = 3
# Protocol: (§3) Proliferation of the different Ba/F3-gp130-IL-6R cell lines in response to IL-6 and Hyper-IL-6 and of Ba/F3-gp130 cells in response to IL-6 and the two different recombinant sIL-6R variants was determined using the Cell Titer Blue Cell viability assay reagent (Promega, Karlsruhe, Germany), following the manufacturer’s protocol as described previously. Values were measured in triplicates per experiment, and relative light units (RLU) obtained after 60 min were normalized by subtraction of control values obtained after 0 min. The maximum proliferation was set to 100%, and all other values were calculated accordingly.
# Supplementary file pbio.2000080.s004.tif: S4 Fig Mutation of Val-356 is sufficient to block ADAM10-mediated proteolysis of the IL-6R and the Asp358Ala variant. (A) HEK293 cells were transiently transfected with Expression plasmids encoding the wildtype IL-6R (PV) or the double mutants (IE, DG) as indicated. Cells were either treated with 1 μM ionomycin for 1 h or DMSO as vehicle control. sIL-6R was precipitated from the supernatant with concanavalin A-covered Sepharose beads, and cells were lysed. Both were analyzed via Western blot, and β-actin served as loading control. One out of three experiments with similar outcome is shown. (B, C) The experiment was performed as described under (A), but sIL-6R generation was analyzed via ELISA. In (B), the amount of sIL-6R generated after ionomycin-stimulation of the wildtype IL-6R (PV) was set to 100%, and all other values were calculated accordingly. In (C), the amount of sIL-6R without stimulation was considered as constitutive shedding and set to 1 and the increase of sIL-6R was calculated. Data shown are the mean ± SD from at least three independent experiments (*p<0.05, ns = no significant difference). (D-F) HEK293 cells were transiently transfected with expression plasmids encoding the wildtype IL-6R (PV) or the single mutants (DV, IV, PE, PG) as indicated. The experiments were performed as described in (A) to (C). (G) ADAM10-mediated proteolysis of the IL-6R variants depicted in Fig 4I was analyzed as described in (B). (H) Equal numbers of Ba/F3-gp130-IL-6R_DG cells were incubated for 48 h with increasing amounts (0–100 ng/ml) of either IL-6 or Hyper-IL-6. One representative experiment out of three performed is shown (mean ± SD, biological triplicates). (TIF) Click here for additional data file.
# [5] = system: Ba/F3-gp130-hIL-6R 3N cells; experiment: Proliferation in response to IL-6 or Hyper-IL-6 (S6C Fig); assay type: cell-based; settings: highest value = 100, mean of n = 3
# Source text: (§4) In order to analyze a functional role for the determined glycans, we created IL-6R mutants that lacked either one, multiple, or all N-glycosylation sites and stably transduced Ba/F3-gp130 cells with these. […] When we analyzed IL-6-dependent proliferation of the individual cell lines, we could not detect a difference between the wild-type IL-6R (Fig 4K), IL-6R mutants lacking one of the five N-glycosylation sites (Fig 6A–6E), IL-6R mutants lacking two (termed 2N), three (3N), or four N-glycosylation sites (4N, S6B–S6D Fig), or the IL-6R mutant that lacked all five N-glycans (5N, Fig 6F). Similarly, mutation of the O-glycosylation site on Thr-352 had no influence on IL-6 signaling (Fig 6G).
# as §3
# (§5) Supplementary file pbio.2000080.s006.tif: S6 Fig Cell-surface expression and signaling capacity of different N-glycan mutants. (A) Cell-surface expression of the IL-6R on the individual Ba/F3-gp130-IL-6R cell lines. The stably transduced IL-6R mutant is indicated above the histogram. Staining is shown in color, whereas the control staining is shown in gray. One out of three experiments with similar outcome is shown. (B-D) Equal numbers of cells of the indicated Ba/F3-gp130-hIL-6R cell line were incubated for 48 h with increasing amounts (0–100 ng/ml) of either IL-6 or Hyper-IL-6. One representative experiment out of three performed is shown (mean ± SD, biological triplicates). (TIF) Click here for additional data file.
# [6] = system: Ba/F3-gp130-hIL-6R 2N cells; experiment: Proliferation in response to IL-6 or Hyper-IL-6 (S6B Fig); assay type: cell-based; settings: highest value = 100, mean of n = 3
# Source text: as §4, §3, §5
# [7] = system: Ba/F3-gp130-hIL-6R-4N cells; experiment: Proliferation in response to IL-6 or Hyper-IL-6 (S6D Fig); assay type: cell-based; settings: highest value = 100, mean of n = 3
# Source text: as §4, §3, §5
# ADAM17 = system: T2, ADAM17; experiment: In vitro cleavage assay of IL-6R (glyco)peptides with recombinant ADAM17; settings: human, isolated enzyme, pH 9
# T2 construct: catalytic domain (aa Pro-18 to Val-477) of ADAM17; purchased Enzo Life Sciences GmbH (Lörrach, Germany)
# Protocol: as §1, §2
compound,measurement,setting,value
NILFRDSANATSLPVQDSSSVPLP [7(QD)],not cleaved,[1],91% ± 8% after 16 h
NILFRDSANATSLPVQDSSSVPLP [3(QD)],not cleaved,[1],91.4% ± 9.4% intact after 16 h
CC[C@H](C)[C@H](NC(=O)[C@@H](N)CC(N)=O)C(=O)N[C@@H](CC(C)C)C(=O)N[C@@H](Cc1ccccc1)C(=O)N[C@@H](CCCNC(=N)N)C(=O)N[C@@H](CC(=O)O)C(=O)N[C@@H](CO)C(=O)N[C@@H](C)C(=O)N[C@@H](CC(=O)N[C@@H]1O[C@H](CO)[C@@H](O[C@@H]2O[C@H](CO)[C@@H](O[C@@H]3O[C@H](CO[C@H]4O[C@H](CO)[C@@H](O)[C@H](O)[C@@H]4O[C@@H]4O[C@H](CO)[C@@H](O[C@@H]5O[C@H](CO)[C@H](O)[C@H](O)[C@H]5O)[C@H](O)[C@H]4NC(C)=O)[C@@H](O)[C@H](O[C@H]4O[C@H](CO)[C@@H](O)[C@H](O)[C@@H]4O[C@@H]4O[C@H](CO)[C@@H](O[C@@H]5O[C@H](CO)[C@H](O)[C@H](O)[C@H]5O)[C@H](O)[C@H]4NC(C)=O)[C@@H]3O)[C@H](O)[C@H]2NC(C)=O)[C@H](O)[C@H]1NC(C)=O)C(=O)N[C@@H](C)C(=O)N[C@H](C(=O)N[C@@H](CO)C(=O)N[C@@H](CC(C)C)C(=O)N1CCC[C@H]1C(=O)N[C@H](C(=O)N[C@@H](CCC(N)=O)C(=O)N[C@@H](C)C(=O)N[C@@H](CO)C(=O)N[C@@H](CO)C(=O)N[C@@H](CO)C(=O)N[C@H](C(=O)N1CCC[C@H]1C(=O)N[C@@H](CC(C)C)C(=O)N1CCC[C@H]1C(=O)O)C(C)C)C(C)C)[C@@H](C)O [6(QA)] (H-NILFRDSAD(X1)ATSLPVQASSSVPLP-OH; N-terminus and C-terminus assumed),"cleavage by recombinant ADAM17, in words",[2],did not alter processing
same,remaining at 16 h,[3],2.44%
NILFRDSANATSLPVQDSSSVPLP [9(QD)],not cleaved,[1],cleavage blocked; mean 95.585% intact after 16 h
NILFRDSANATSLPVQDSSSVPLP [5(QD)],not cleaved,[1],cleavage blocked; mean 101.852% intact after 16 h
IL-6: recombinant human interleukin-6,"proliferation, Figure S4H, mean",[4]; cytokine 0.001 ng/ml,4.604
same,"proliferation, Figure S4H, mean",[4]; cytokine 0.01 ng/ml,11.7535
same,"proliferation, Figure S4H, mean",[4]; cytokine 0.1 ng/ml,45.6464
same,"proliferation, Figure S4H, mean",[4]; cytokine 1 ng/ml,77.0141
same,"proliferation, Figure S4H, mean",[4]; cytokine 10 ng/ml,92.624
same,"proliferation, Figure S4H, mean",[4]; cytokine 100 ng/ml,70.8452
same,"proliferation, Figure S6C, mean",[5]; cytokine 0.001 ng/ml,8.138
same,"proliferation, Figure S6C, mean",[5]; cytokine 0.01 ng/ml,15.3684
same,"proliferation, Figure S6C, mean",[5]; cytokine 0.1 ng/ml,39.4534
same,"proliferation, Figure S6C, mean",[5]; cytokine 1 ng/ml,92.5489
same,"proliferation, Figure S6C, mean",[5]; cytokine 10 ng/ml,89.1651
same,"proliferation, Figure S6C, mean",[5]; cytokine 100 ng/ml,87.3482
same,"proliferation, Figure S6B, mean",[6]; cytokine 0.001 ng/ml,10.1623
same,"proliferation, Figure S6B, mean",[6]; cytokine 0.01 ng/ml,21.276
same,"proliferation, Figure S6B, mean",[6]; cytokine 0.1 ng/ml,41.189
same,"proliferation, Figure S6B, mean",[6]; cytokine 1 ng/ml,78.0666
same,"proliferation, Figure S6B, mean",[6]; cytokine 10 ng/ml,86.7819
same,"proliferation, Figure S6B, mean",[6]; cytokine 100 ng/ml,79.1326
same,"proliferation, Figure S6D, mean",[7]; cytokine 0.001 ng/ml,7.259
same,"proliferation, Figure S6D, mean",[7]; cytokine 0.01 ng/ml,22.724
same,"proliferation, Figure S6D, mean",[7]; cytokine 0.1 ng/ml,61.9479
same,"proliferation, Figure S6D, mean",[7]; cytokine 1 ng/ml,88.3209
same,"proliferation, Figure S6D, mean",[7]; cytokine 10 ng/ml,84.8559
same,"proliferation, Figure S6D, mean",[7]; cytokine 100 ng/ml,63.7775
CC[C@H](C)[C@H](NC(=O)[C@@H](N)CC(N)=O)C(=O)N[C@@H](CC(C)C)C(=O)N[C@@H](Cc1ccccc1)C(=O)N[C@@H](CCCNC(=N)N)C(=O)N[C@@H](CC(=O)O)C(=O)N[C@@H](CO)C(=O)N[C@@H](C)C(=O)N[C@@H](CC(N)=O)C(=O)N[C@@H](C)C(=O)N[C@H](C(=O)N[C@@H](CO)C(=O)N[C@@H](CC(C)C)C(=O)N1CCC[C@H]1C(=O)N[C@H](C(=O)N[C@@H](CCC(N)=O)C(=O)N[C@@H](C)C(=O)N[C@@H](CO)C(=O)N[C@@H](CO)C(=O)N[C@@H](CO)C(=O)N[C@H](C(=O)N1CCC[C@H]1C(=O)N[C@@H](CC(C)C)C(=O)N1CCC[C@H]1C(=O)O)C(C)C)C(C)C)[C@@H](C)O[C@H]1O[C@H](CO)[C@H](O)[C@H](O)[C@H]1NC(C)=O [8(QA)] (H-NILFRDSANAT(αGalNAc)SLPVQASSSVPLP-OH),"remaining at 16 h, 50 μM",ADAM17,10.8%
